Where two headings read alike, the source gives them in different places. Starred links: 1 amine or outer side, 2 acyl side, 3 side chain; linkers in the order of their positions; H or OH if unused. Non-standard residues stand in square brackets, D forms with d. Residues, ends and D or L forms follow the SMILES beside them. Groups on a side chain read outwards from the residue. *: point of attachment. C20 diacid = O=C(O)CCCCCCCCCCCCCCCCCCC(=O)*; γGlu = O=C(O)[C@H](CCC(=O)[*:2])N[*:1]; NMeI = CC[C@H](C)[C@H](NC)C(=O)O; Nle = CCCC[C@H](N)C(=O)O; AEEA = NCCOCCOCC(=O)O; Aib = CC(C)(N)C(=O)O
Tests used:
hCRHR2 = target: T1, hCRHR2 (Homo sapiens, UniProt Q13324); assay: HTRF cAMP assay, determination of hCRHR2 potency (peptide libraries 5 conc., purified peptides 11 conc.); type: cell-based
T1 sequence (Q13324 1-411): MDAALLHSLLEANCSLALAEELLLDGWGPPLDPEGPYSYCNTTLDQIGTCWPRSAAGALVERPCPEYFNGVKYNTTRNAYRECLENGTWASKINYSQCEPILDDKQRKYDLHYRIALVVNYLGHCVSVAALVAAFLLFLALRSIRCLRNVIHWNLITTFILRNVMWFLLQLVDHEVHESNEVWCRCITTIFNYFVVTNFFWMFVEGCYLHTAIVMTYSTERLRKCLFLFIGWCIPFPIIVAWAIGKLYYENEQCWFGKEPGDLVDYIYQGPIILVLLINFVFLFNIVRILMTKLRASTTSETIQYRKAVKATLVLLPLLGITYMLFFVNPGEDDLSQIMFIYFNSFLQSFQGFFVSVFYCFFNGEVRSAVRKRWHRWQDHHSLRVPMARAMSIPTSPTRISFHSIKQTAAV
Procedure, shortened: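 Frozen stocks of hCRHR2-expressing CHO-K1 cells, thawed just before testing, received peptide agonists in suspension; cAMP quantified by competitive HTRF immunoassay, with curves fitted by nonlinear regression (variable slope) for EC50.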

hCRHR1 = target: T2, hCRHR1 (Homo sapiens, UniProt P34998); assay: HTRF cAMP assay, determination of hCRHR1 potency (peptide libraries 5 conc., purified peptides 11 conc.); type: cell-based
T2 sequence (P34998 24-415): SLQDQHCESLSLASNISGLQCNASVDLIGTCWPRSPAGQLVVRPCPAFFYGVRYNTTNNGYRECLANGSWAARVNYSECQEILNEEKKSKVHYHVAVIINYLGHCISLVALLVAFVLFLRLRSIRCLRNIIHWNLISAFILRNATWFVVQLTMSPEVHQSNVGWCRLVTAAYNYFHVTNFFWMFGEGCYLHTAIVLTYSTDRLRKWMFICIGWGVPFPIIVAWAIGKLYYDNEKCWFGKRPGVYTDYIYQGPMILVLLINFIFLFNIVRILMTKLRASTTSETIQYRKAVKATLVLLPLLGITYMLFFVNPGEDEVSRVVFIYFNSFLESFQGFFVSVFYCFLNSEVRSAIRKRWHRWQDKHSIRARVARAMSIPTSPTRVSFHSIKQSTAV
Procedure, shortened: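 Cellular cAMP was read by time-resolved FRET between d2-labelled cAMP and cryptate anti-cAMP antibody. The cells were freshly thawed suspension CHO-K1 cells stably expressing human CRHR1.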

[1] = library peptides, matched molecular pairs L vs Nle in position X^38, read-out: Potency hCRHR2 pEC50 (converted)
[2] = library peptides, matched molecular pairs L vs Nle in position X^38, read-out: Potency hCRHR1 pEC50 (converted)
[3] = Table 3, matched molecular pairs X^38 L vs Nle, peptide library of Example 4, read-out: hCRHR2 pEC50 (converted)
[4] = Table 3, matched molecular pairs X^38 L vs Nle, peptide library of Example 4, read-out: hCRHR1 pEC50 (converted)

Row | EC50 (hCRHR2; [1]) [nM] | EC50 (hCRHR1; [2]) [nM] | EC50 (hCRHR2; [3]) [nM] | EC50 (hCRHR1; [4]) [nM] | Compound | further results
1 | 0.251 | 501 |  |  | CCCC[C@H](NC(=O)[C@@H](NC(=O)[C@H](CCC(=O)O)NC(=O)[C@H](C)NC(=O)[C@H](CC(N)=O)NC(=O)[C@@H](NC(=O)[C@H](CCCCNC(=O)COCCOCCNC(=O)COCCOCCNC(=O)CC[C@H](NC(=O)CC[C@H](NC(=O)CCCCCCCCCCCCCCCCCCC(=O)O)C(=O)O)C(=O)O)NC(=O)[C@H](C)NC(=O)[C@H](CCC(N)=O)NC(=O)[C@H](CCC(=O)O)NC(=O)[C@H](CCCNC(=N)N)NC(=O)[C@H](C)NC(=O)[C@H](C)NC(=O)[C@H](CCC(N)=O)NC(=O)[C@H](C)NC(=O)[C@H](CCCNC(=N)N)NC(=O)[C@H](C)NC(=O)[C@H](CCC(N)=O)NC(=O)[C@H](CCC(=O)O)NC(=O)[C@H](CC(C)C)NC(=O)[C@H](CC(C)C)NC(=O)[C@@H](NC(=O)[C@H](CCC(N)=O)NC(=O)[C@H](CC(C)C)NC(=O)[C@H](CC(C)C)NC(=O)CNC(=O)[C@@H](NC(=O)[C@@H]1CCCN1C(=O)[C@@H](NC(=O)[C@H](CC(=O)O)NC(=O)[C@H](CC(C)C)NC(=O)[C@H](CO)NC(=O)[C@H](CC(C)C)NC(=O)[C@@H](NC(=O)[C@@H](N)[C@@H](C)CC)C(C)C)C(C)C)[C@@H](C)CC)[C@@H](C)CC)[C@@H](C)O)[C@@H](C)CC)C(=O)N[C@@H](C)C(=O)N[C@@H](CCC(=O)O)C(=O)N[C@H](C(N)=O)C(C)C [compound 63] (H-IVLSLDVPIGLLQILLEQARAQAAREQAK([AEEA-AEEA-γGlu-γGlu-C20 diacid])TNAEI[Nle]AEV-NH2) | 
2 |  |  |  |  | CCCC[C@H](NC(=O)[C@@H](NC(=O)[C@H](CCC(=O)O)NC(=O)C(C)(C)NC(=O)[C@H](CC(N)=O)NC(=O)[C@@H](NC(=O)[C@H](CCCCNC(=O)COCCOCCNC(=O)COCCOCCNC(=O)CC[C@H](NC(=O)CC[C@H](NC(=O)CCCCCCCCCCCCCCCCCCC(=O)O)C(=O)O)C(=O)O)NC(=O)[C@H](C)NC(=O)[C@H](CCC(N)=O)NC(=O)[C@H](CCC(=O)O)NC(=O)[C@H](CCCNC(=N)N)NC(=O)[C@H](C)NC(=O)[C@H](C)NC(=O)[C@H](CCCNC(=N)N)NC(=O)[C@H](C)NC(=O)[C@H](CCCNC(=N)N)NC(=O)[C@H](C)NC(=O)[C@H](CCC(N)=O)NC(=O)[C@H](CC(C)C)NC(=O)[C@H](CC(C)C)NC(=O)[C@H](CC(C)C)NC(=O)[C@@H](NC(=O)[C@H](CCC(N)=O)NC(=O)[C@H](CC(C)C)NC(=O)[C@H](CC(C)C)NC(=O)CNC(=O)[C@@H](NC(=O)[C@@H]1CCCN1C(=O)[C@@H](NC(=O)[C@H](CC(=O)O)NC(=O)[C@H](CC(C)C)NC(=O)[C@H](CO)NC(=O)[C@H](CC(C)C)NC(=O)[C@@H](NC(=O)[C@@H](NC)[C@@H](C)CC)C(C)C)C(C)C)[C@@H](C)CC)[C@@H](C)CC)[C@@H](C)O)[C@@H](C)CC)C(=O)N[C@@H](C)C(=O)N[C@@H](CCC(=O)O)C(=O)N[C@H](C(N)=O)C(C)C [compound 229] (H-[NMeI]VLSLDVPIGLLQILLLQARARAAREQAK([AEEA-AEEA-γGlu-γGlu-C20 diacid])TN[Aib]EI[Nle]AEV-NH2) | EC50 (hCRHR2; Table 4, library peptides having X^38 = Nle, read-out: hCRHR2 pEC50 (converted)): 0.0794 nM; EC50 (hCRHR1; Table 4, library peptides having X^38 = Nle, read-out: hCRHR1 pEC50 (converted)): 6310 nM
3 |  |  | 0.501 | 63100 | CC[C@H](C)[C@H](N)C(=O)N[C@H](C(=O)N[C@@H](CC(C)C)C(=O)N[C@@H](CO)C(=O)N[C@@H](CC(C)C)C(=O)N[C@@H](CC(=O)O)C(=O)N[C@H](C(=O)N1CCC[C@H]1C(=O)N[C@H](C(=O)NCC(=O)N[C@@H](CC(C)C)C(=O)N[C@@H](CC(C)C)C(=O)N[C@@H](CCC(N)=O)C(=O)N[C@H](C(=O)N[C@@H](CC(C)C)C(=O)N[C@@H](CC(C)C)C(=O)N[C@@H](CCC(=O)O)C(=O)N[C@@H](CCC(N)=O)C(=O)N[C@@H](C)C(=O)N[C@@H](CCCNC(=N)N)C(=O)N[C@@H](C)C(=O)N[C@@H](CCC(N)=O)C(=O)N[C@@H](C)C(=O)N[C@@H](C)C(=O)N[C@@H](CCCNC(=N)N)C(=O)N[C@@H](CCC(=O)O)C(=O)N[C@@H](CCC(N)=O)C(=O)N[C@@H](C)C(=O)N[C@@H](CCCCNC(=O)COCCOCCNC(=O)COCCOCCNC(=O)CC[C@H](NC(=O)CC[C@H](NC(=O)CCCCCCCCCCCCCCCCCCC(=O)O)C(=O)O)C(=O)O)C(=O)N[C@H](C(=O)N[C@@H](CC(N)=O)C(=O)N[C@@H](C)C(=O)N[C@@H](CCC(=O)O)C(=O)N[C@H](C(=O)N[C@@H](CC(C)C)C(=O)N[C@@H](C)C(=O)N[C@@H](CCC(=O)O)C(=O)N[C@H](C(N)=O)[C@@H](C)CC)[C@@H](C)CC)[C@@H](C)O)[C@@H](C)CC)[C@@H](C)CC)C(C)C)C(C)C [SEQ ID NO: 43] (H-IVLSLDVPIGLLQILLEQARAQAAREQAK([AEEA-AEEA-γGlu-γGlu-C20 diacid])TNAEILAEI-NH2) | 
4 |  |  | 1.26 | 126000 | CC[C@H](C)[C@H](N)C(=O)N[C@H](C(=O)N[C@@H](CC(C)C)C(=O)N[C@@H](CO)C(=O)N[C@@H](CC(C)C)C(=O)N[C@@H](CC(=O)O)C(=O)N[C@H](C(=O)N1CCC[C@H]1C(=O)N[C@H](C(=O)NCC(=O)N[C@@H](CC(C)C)C(=O)N[C@@H](CC(C)C)C(=O)N[C@@H](CCC(N)=O)C(=O)N[C@H](C(=O)N[C@@H](CC(C)C)C(=O)N[C@@H](CC(C)C)C(=O)N[C@@H](CCC(=O)O)C(=O)N[C@@H](CCC(N)=O)C(=O)N[C@@H](C)C(=O)N[C@@H](CCCNC(=N)N)C(=O)N[C@@H](C)C(=O)N[C@@H](CCCNC(=N)N)C(=O)N[C@@H](C)C(=O)N[C@@H](CCC(N)=O)C(=O)N[C@@H](CCCNC(=N)N)C(=O)N[C@@H](CCC(=O)O)C(=O)N[C@@H](CCC(=O)O)C(=O)N[C@@H](C)C(=O)N[C@@H](CCCCNC(=O)COCCOCCNC(=O)COCCOCCNC(=O)CC[C@H](NC(=O)CC[C@H](NC(=O)CCCCCCCCCCCCCCCCCCC(=O)O)C(=O)O)C(=O)O)C(=O)N[C@H](C(=O)N[C@@H](CC(N)=O)C(=O)N[C@@H](C)C(=O)N[C@@H](CCC(=O)O)C(=O)N[C@H](C(=O)N[C@@H](CC(C)C)C(=O)N[C@@H](C)C(=O)N[C@@H](CCC(=O)O)C(=O)N[C@H](C(N)=O)C(C)C)[C@@H](C)CC)[C@@H](C)O)[C@@H](C)CC)[C@@H](C)CC)C(C)C)C(C)C [SEQ ID NO: 33] (H-IVLSLDVPIGLLQILLEQARARAQREEAK([AEEA-AEEA-γGlu-γGlu-C20 diacid])TNAEILAEV-NH2) | 
5 | 0.398 | 1.58 |  |  | CCCC[C@H](NC(=O)[C@@H](NC(=O)[C@H](CCC(=O)O)NC(=O)[C@H](C)NC(=O)[C@H](CC(N)=O)NC(=O)[C@@H](NC(=O)[C@H](CCCCNC(=O)COCCOCCNC(=O)COCCOCCNC(=O)CC[C@H](NC(=O)CC[C@H](NC(=O)CCCCCCCCCCCCCCCCCCC(=O)O)C(=O)O)C(=O)O)NC(=O)[C@H](C)NC(=O)[C@H](CCC(N)=O)NC(=O)[C@H](CCC(=O)O)NC(=O)[C@H](CCCNC(=N)N)NC(=O)[C@H](C)NC(=O)[C@@H](NC(=O)[C@H](CCCNC(=N)N)NC(=O)[C@H](C)NC(=O)[C@H](CCCNC(=N)N)NC(=O)[C@H](C)NC(=O)[C@H](CCC(N)=O)NC(=O)[C@H](CCC(=O)O)NC(=O)[C@H](CC(C)C)NC(=O)[C@H](CC(C)C)NC(=O)[C@@H](NC(=O)[C@H](CCC(N)=O)NC(=O)[C@H](CC(C)C)NC(=O)[C@H](CC(C)C)NC(=O)CNC(=O)[C@@H](NC(=O)[C@@H]1CCCN1C(=O)[C@@H](NC(=O)[C@H](CC(=O)O)NC(=O)[C@H](CC(C)C)NC(=O)[C@H](CO)NC(=O)[C@H](CC(C)C)NC(=O)[C@@H](NC(=O)[C@@H](N)[C@@H](C)CC)C(C)C)C(C)C)[C@@H](C)CC)[C@@H](C)CC)C(C)C)[C@@H](C)O)[C@@H](C)CC)C(=O)N[C@@H](C)C(=O)N[C@@H](CCC(=O)O)C(=O)N[C@H](C(N)=O)C(C)C [compound 91] (H-IVLSLDVPIGLLQILLEQARARVAREQAK([AEEA-AEEA-γGlu-γGlu-C20 diacid])TNAEI[Nle]AEV-NH2) | 

Source: patent EP4810052A2, “HCRHR2 SELECTIVE POLYPEPTIDES” (Gubra A/S, priority 2023, dated 2026)
